Assay results from patent US8173604B2, “Inhibition of Skp2-cyclin a interaction” (Albert Einstein College of Medicine of Yeshiva University, priority 2006, dated 2012).
“Also recorded” adds a separate entry of the source. Numbered stars: 1 amine (or outer) side, 2 acyl side, 3 side chain; on linkers, the order of the positions; unused ones are H or OH. Bridge positions count the residues as written; N and C are the ends. Square brackets hold non-standard residues; d marks the D form. Peptide text beside a SMILES is read from it. I, II: the chains in the order shown. Actinocin(9to1) = Cc1c2oc3c(C)ccc(C(=O)[*:1])c3nc-2c(C(=O)[*:2])c(N)c1=O; NMeV = CN[C@H](C(=O)O)C(C)C; Sar = CNCC(=O)O

Columns and labels:
[1] = biological target: T1, cyclin A/Cdk2 (Homo sapiens, UniProt P20248+P24941); test: In vitro cyclin A/Cdk2 kinase assay with purified proteins (GST-Rb-C substrate); assay type: biochemical; conditions: for Preventing Skp2N from protecting cyclin A/Cdk2 from inhibition by p27: cyclin A/Cdk2 3 nM, p27 5 nM, Skp2N 80 nM, increasing amounts of peptide
T1 construct: made in house; host or cells: insect cells (baculovirus)
Procedure: (§1) Cyclin A/Cdk2 kinase assays were performed as described previously (Ji et al., 2004). Both immuno-purified myc-cyclin A/Cdk2 on beads and GST-purified and eluted GST-cyclin A/Cdk2 (baculovirus vectors for GST-cyclin A and Cdk2 were provided by Brian Dynlacht) were used. The amounts of purified proteins were determined by comparing them with known amounts of standard proteins in Coomassie blue stained gels. Phosphorylation of GST-Rb-C was quantified with the ImageQuant software. The Ki of various proteins was determined by non-linear least squares analysis. To determine the amounts of various proteins in synchronized HeLa cells, extracts representing 7.5×10^4 HeLa cells were resolved with known amounts of purified proteins and compared in the same Western blots. Actual amounts of proteins in 7.5×10^4 HeLa cells were then determined (for example, the amounts of p27, Skp2, and cyclin A in 7.5×10^4 HeLa cells were determined to be about 0.1, 0.2, and 0.1 pmoles, respectively, at 14 hours post-replating; and about 0.01, 0.1, and 1.0 pmoles, respectively, at 19 hours post-replating).
For kinase reactions, insect cell-produced and purified GST-cyclin A/Cdk2 was used at a concentration of ˜3 nM, which was the lowest concentration that yielded readily detectible phosphorylation of GST-Rb-C here. Purified p27, GST-Skp2, and Skp2N were titrated into the kinase reaction over a wide range of concentrations (FIGS. 7A, B, and C). Phosphorylation of Rb-C was measured and plotted, and the Ki of these various proteins were determined by non-linear least squares analysis (FIG. 7F).
Since Skp2 competes with p27 for binding to cyclin A and Skp2's Ki is about 100-fold higher than p27's Ki, it can be reasoned that, at concentrations well below its Ki, Skp2 might be able to protect cyclin A/Cdk2 from inhibition by p27. To test this hypothesis, the same cyclin A/Cdk2 kinase assay was carried out to determine the inhibitory activity of p27 in the presence of 80 nM of Skp2N.
It was then determined whether the 4060 peptide could prevent Skp2N from protecting cyclin A/Cdk2 from inhibition by p27. […] When 80 nM of Skp2N was included, 5 nM of p27 lost its ability to inhibit the kinase activity (lane 3). […] These findings indicate that the Skp2-cyclin A interaction is also a potential target to inhibit cyclin A kinase activity in tumor cells, particularly those overexpressing Skp2.
To test this prediction, various peptides were added to an in vitro kinase reaction with purified cyclin A/Cdk2 (˜3 nM concentration). An E2F1-derived RxL peptide, LDL peptide, was used for comparison since it could inhibit cyclin A/Cdk2 kinase activity (Sun et al., 2006, and see next section). Since a TAT sequence was later added to these peptides for trans-membrane delivery (see next section), two versions of each peptide (without TAT and with TAT) was used in these kinase assays. These two versions of peptides yielded identical results and therefore only presented results with one version of the peptides.
The effects of the 4060 peptide on cyclin A/Cdk2 kinase activity in the presence of Skp2 and p27 were then determined.

[2] = biological target: T2, Skp2-cyclin A interaction (Homo sapiens, UniProt P20248); test: GST pull-down, blocking of Skp2-cyclin A interaction by peptides; assay type: binding; conditions: for Blocking of Skp2N-cyclin A interaction: GST-Skp2N, myc-cyclin A/Cdk2 transfected 293T cell extracts
T2 construct: expressed in transfected cells; host or cells: 293T (cyclin A/Cdk2)
Procedure: GST pull down, p27 ubiquitylation assay, and cyclin A kinase assay. GST fusion proteins were purified on GSH-beads (Amersham), which were then incubated with transfected cell extracts for 1 hour in 4° C. with rocking. The beads were washed three times with lysis buffer (25 mM Hepes pH 7.6, 100 mM KCl, 0.1 mM EDTA, 10 mM MgCl2, 0.1% NP-40, 10% glycerol, 1 mM DTT) before analysis by SDS-PAGE and Western blotting.
Skp2-cyclin A interaction and p27-cyclin A interaction can be blocked by distinct peptides. An important aspect of the RxL-1-IP interaction is that it can be blocked by a short RxL peptide (Adams et al., 1996). If the Skp2-cyclin A/Cdk2 interaction and the p27-cyclin A/Cdk2 interaction are mediated by different sequences on both sides of the interaction, as shown above, it can be predicted that the RxL peptide should not block Skp2-cyclin A interaction. […] Peptide concentrations required for their respective blocking activities were similar for RxL and 4060 peptides.

[3] = biological target: T1, cyclin A/Cdk2; test: IP-kinase assay with myc-cyclin A/Cdk2 transfected 293T cell extract; assay type: biochemical; conditions: increasing amounts of peptide
Procedure: In panel A, an IP-kinase assay was performed with myc-cyclin A/Cdk2 transfected 293T cell extract in the presence of increasing amounts of RxL or 4060 peptides. Phosphorylation of GST-Skp2N is visible in this gel. […] As indicated, increasing amounts of the 4060 or 4060AAAA peptides were included in the reactions. Phosphorylation of Rb-C was quantified and plotted as shown.
as §1, with “To determine the amounts of various proteins in synchronized HeLa cells, extracts representing 7.5×10^4 HeLa cells were resolved with known amounts of purified proteins and compared in the same Western blots.” left out, “post-replating). […]” for “post-replating).”

[4] = system: U2OS cells; conditions: for Cell killing effect: twenty four hours after addition of peptides
Procedure: It is currently unknown how peptide concentrations in the culture media translate into intro-cellular peptide concentrations.
Whether artificial manipulation of Skp2 protein levels in U2OS cells could change the IC50 of various peptides was also investigated.
(§2) Cell proliferation and survival assays. For the cell proliferation assay shown in FIG. 10D, 1×10^4 cells were plated in each well of 24 well plates and allowed to grow for a course of four days in the presence of 10% FBS. Cell numbers were counted every day from triplet wells. For cell survival assays in FIGS. 13, 14 and 15, 1×10^3 cells were plated in each well of 96 well plates and allowed to adhere overnight in the presence of 10% FBS. The cells were washed once with Opti-MEM (GIBCO) followed by incubation with different concentrations of peptides in Opti-MEM for 24 hours in triplicate. MTS assay was then performed following manufacturer's protocol (Promega).

[5] = system: human diploid fibroblasts WI-38; test: Cell survival MTS assay, WI-38; assay type: cell-based; conditions: 120 μM, 24 hours
Procedure: In comparison, both TAT-Umt and TAT-4060 inhibited cyclin A/Cdk2 kinase activity in vitro at peptide concentrations of 100 μM (FIG. 11B). It is currently unknown how peptide concentrations in the culture media translate into intro-cellular peptide concentrations.
as §2

[6] = system: U2OS cells; test: Flow cytometry cell cycle profile after actinomycin D; assay type: cell-based, human; conditions: actinomycin D 180 nM, 20 hours
Procedure: Drug treatment and various routine assays. Actinomycin D (Sigma) treatment was for 20-22 hours at 180 nM. To arrest HeLa cells in mitotic phase, cells were treated with 100 ng/ml nocodazole (Sigma) for 16-17 hours. Western blotting, immunoprecipitation, indirect immunofluorescence, and flow cytometry analysis to determine cell cycle profiles were all performed with standard protocols and as described previously (Ji et al., 2004).
The AAAA mutation compromises Skp2's proliferation stimulatory activity without affecting its ability to cause degradation of cellular p27 and p21. […] Similar to the experiment shown in FIG. 6B, U2OS cells were treated with actinomycin D, which led to activation of p53, stimulation of p21 expression, and G1 cell cycle arrest manifested by a 20% increase in G1 phase cells (FIGS. 9A and B). Skp2 was overexpressed in U2OS cells to determine whether Skp2 could counter the G1 cell cycle arrest mediated by this actinomycin D triggered checkpoint.

[7] = biological target: T3, interaction between cellular Skp2 and cyclin A/Cdk2 (Homo sapiens, UniProt P20248); test: Coimmunoprecipitation with cyclin A from peptide-treated U2OS cells; assay type: cell-based; conditions: 50 μM peptide, twelve hours
T3 construct: endogenous in cells; host or cells: U2OS
Procedure: FIG. 12 is photographs of western blots and kinase assays and graphs showing the effects of trans-membrane delivery of the 4060 peptide. In Panel A, U2OS cells were treated with 50 μM of indicated peptide for twelve hours. Cell extracts were prepared for immunoprecipitation and Western blot analysis as indicated. […] In Panel C, the same extracts were used in IP-kinase assays as indicated. The extent of phosphorylation was quantified and plotted.
The loss of Skp2-cyclin A/Cdk2 interaction was not due to a reduction in levels of these proteins (FIG. 12B). Importantly, cellular p27 protein levels were not affected by the blocking peptide. […] Here, it is important to point out that although we used p27 as an inhibitor of cyclin A-associated kinase activity in purified kinase reactions with the 4060 blocking peptide shown in FIG. 11, the effects of blocking Skp2-cyclin A interaction on cyclin A-associated kinase activity in cells is unlikely to be mediated by p27 alone. There was no significant interaction between p27 and cyclin A in U2OS cells before and after treatment of TAT-4060. p27 family members p21 and p57, and the pocket proteins p107 and p130 (Adams et al., 1996) may bind and inhibit cyclin A-associated kinase activity through the RxL-HP interaction mechanism. […]

| Compound | Preventing Skp2N from protecting cyclin A/Cdk2 from inhibition by p27 [1] | Blocking of Skp2N-cyclin A interaction [2] | Change of peptide effect by Skp2 knockdown or overexpression ([4]; U2OS) | WI-38 cells killed [5] | Cell killing effect ([4]; U2OS) | also measured |
| --- | --- | --- | --- | --- | --- | --- |
| KTSELLSGMGVSALEKEE (listed as Homo sapiens) [compound 4060] | p27 gradually regained its inhibitory effects; also recorded: abolished this protective effect in a dose-dependent manner | can block | – | – | – | Blocking of binding between full-length GST-Skp2 and cyclin A/Cdk2 ([2]; full-length GST-Skp2): blocked binding; Effect of peptide itself on cyclin A/Cdk2 kinase activity towards Rb-C [3]: did not |
| CC(C)C[C@H](NC(=O)[C@H](CC(=O)O)NC(=O)[C@H](CC(C)C)NC(=O)[C@H](CCCNC(=N)N)NC(=O)[C@H](CCCNC(=N)N)NC(=O)[C@H](CCCCN)NC(=O)[C@@H](NC(=O)[C@@H]1CCCN1C(=O)CNC(=O)[C@H](CCCNC(=N)N)NC(=O)[C@H](CCCNC(=N)N)NC(=O)[C@H](CCCNC(=N)N)NC(=O)[C@H](CCC(N)=O)NC(=O)[C@H](CCCNC(=N)N)NC(=O)[C@H](CCCNC(=N)N)NC(=O)[C@H](CCCCN)NC(=O)[C@H](CCCCN)NC(=O)[C@H](CCCNC(=N)N)NC(=O)CNC(=O)[C@@H](N)Cc1ccc(O)cc1)C(C)C)C(=O)O [TAT-LDL, reference compound] | – | – | not affected by Skp2 knockdown or overexpression | 25% | – | Cell killing effect of single peptide ([4]; U2OS, 1 or 2 μM, 24 hours): neither TAT-LDL nor TAT-4060 exhibited any cell killing effects; Inhibition of cyclin A/Cdk2 kinase activity towards GST-Rb-C ([1]; 1 μM peptide, cyclin A/Cdk2 ~3 nM): ten-fold |
| Cc1c2oc3c(C)ccc(C(=O)N[C@@H]4C(=O)N[C@H](C(C)C)C(=O)N5CCC[C@H]5C(=O)N(C)CC(=O)N(C)[C@@H](C(C)C)C(=O)O[C@@H]4C)c3nc-2c(C(=O)N[C@@H]2C(=O)N[C@H](C(C)C)C(=O)N3CCC[C@H]3C(=O)N(C)CC(=O)N(C)[C@@H](C(C)C)C(=O)O[C@@H]2C)c(N)c1=O [actinomycin D, Actinomycin D] (I: T[dV]P[Sar][NMeV] / II: T[dV]P[Sar][NMeV]; ester I:1-I:C, II:1-II:C; linker I:N-II:N via Actinocin(9to1)) | – | – | – | – | – | Increase in G1 phase cells [6]: 20% |
| KTSEAASGMGVAAAEKEE (peptide 4060AAAA) [4060 peptide with the four conserved residues mutated to alanine, reference compound] | did not have significant effects; also recorded: much weaker in disrupting the protective effect of Skp2N | abolished the blocking activity | – | – | – | – |
| YGRKKRRQRRRGETDHQYLAESS (TAT-Umt) [negative control peptide, reference compound] | – | – | not affected by Skp2 knockdown or overexpression | no effect | did not have cell killing effects | Cell killing effect at 120 μM ([4]; 120 μM): did not exhibit cell killing effects; Inhibitory effect on cyclin A/Cdk2 kinase activity ([1]; 1 μM and 10 μM peptide): did not show inhibitory effect; Inhibition of cyclin A/Cdk2 kinase activity ([1]; 100 μM peptide): significant inhibition |
| YGRKKRRQRRRGKTSEAASGMGVAAAEKEE (TAT-4060AAAA) [mutant control peptide, reference compound] | – | – | – | – | did not have significant cell killing effects | Dissociation of interaction between cellular Skp2 and cyclin A/Cdk2 [7]: did not have this effect |
